Measurements: publication PMC10520017, “Discovery of Nedd4 auto-ubiquitination inhibitors” (Scientific Reports, 2023)
Where a chain is given by its changes, count along the chain named. Where “and” joins values, the source holds several entries; their conditions need not be identical. Identical values can stand only once. Like-named read-outs stand apart in the source and are kept apart here.

What was measured:
Nedd4 [1] = test system: Nedd4; design: method as in PMID 27979631; details: cited from earlier work
Nedd4 [2] = target: T1, Nedd4 (Homo sapiens, UniProt P46934)
T1 sequence (P46934 1-900 isoform P46934-4): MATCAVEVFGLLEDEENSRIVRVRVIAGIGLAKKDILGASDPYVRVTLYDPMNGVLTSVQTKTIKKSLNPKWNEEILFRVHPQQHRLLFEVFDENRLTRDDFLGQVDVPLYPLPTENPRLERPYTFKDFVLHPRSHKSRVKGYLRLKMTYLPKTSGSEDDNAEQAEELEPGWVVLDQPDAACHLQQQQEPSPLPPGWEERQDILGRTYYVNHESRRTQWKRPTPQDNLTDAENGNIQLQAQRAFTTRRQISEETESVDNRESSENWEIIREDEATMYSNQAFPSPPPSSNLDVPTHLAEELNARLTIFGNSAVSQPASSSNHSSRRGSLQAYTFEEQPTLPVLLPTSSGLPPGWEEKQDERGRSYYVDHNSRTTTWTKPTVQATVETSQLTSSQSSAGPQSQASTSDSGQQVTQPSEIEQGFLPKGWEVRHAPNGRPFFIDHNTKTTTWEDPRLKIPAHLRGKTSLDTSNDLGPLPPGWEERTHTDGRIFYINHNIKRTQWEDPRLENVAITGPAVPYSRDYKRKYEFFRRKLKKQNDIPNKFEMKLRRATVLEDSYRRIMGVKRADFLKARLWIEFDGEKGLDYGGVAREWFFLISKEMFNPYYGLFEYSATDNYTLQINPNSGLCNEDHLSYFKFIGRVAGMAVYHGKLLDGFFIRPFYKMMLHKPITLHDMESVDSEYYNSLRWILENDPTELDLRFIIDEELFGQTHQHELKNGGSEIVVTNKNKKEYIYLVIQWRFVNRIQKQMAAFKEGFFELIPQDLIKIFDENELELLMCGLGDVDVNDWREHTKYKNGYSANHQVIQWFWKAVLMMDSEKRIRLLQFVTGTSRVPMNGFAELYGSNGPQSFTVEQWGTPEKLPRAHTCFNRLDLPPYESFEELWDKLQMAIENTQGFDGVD
Procedure: (§1) All time-resolved fluorescence resonance energy transfer (TR-FRET) auto-ubiquitination assays were performed in a final volume of 10 µL in PerkinElmer 384-well flat bottom white OptiPlate™ polystyrene microplates (PerkinElmer Cat. No. 6007290). […] A low concentration of NP-40 detergent (0.00063% v/v) was chosen for the Nedd4 auto-ubiquitination assay since this concentration yielded optimal terbium emission at 485 nm after 340 nm excitation (Supplementary Fig. 2). […] Reaction mixes containing all assay components except ATP-MgCl2 were preincubated with either library compounds dissolved in 1% DMSO or DMSO alone at RT for up to 2 h. To initiate the auto-ubiquitination reaction, 2 mM ATP-MgCl2 was added and incubated at 37 °C for 60–90 min. TR-FRET signal was measured in a Synergy 4 microplate reader (BioTek) using a 340/30 nm excitation filter and measuring the emission ratio using 485/20 nm and 528/20 nm emission filters. Fluorescence measurement was performed over a 400 µs window following a 100 µs delay post-excitation (Fig. 1).
(§2) All experiments were performed in triplicate (n = 3), and plotted values represent the average of three replicates with the standard deviation. TR-FRET signal refers to background values subtracted using control wells containing Tb-SA and Ub-FITC. Data were plotted using GraphPad 9.1.2 (GraphPad, La Jolla, CA) and fitted to a four-parameter sigmoidal dose–response curve. Where applicable, the dose–response was normalized and expressed as a percentage of auto-ubiquitination activity relative to the DMSO control.

Nedd4 [3] = target: T1, Nedd4; assay: biochemical
Procedure: as §1, §2

WWP1 = WWP1 (Homo sapiens, UniProt Q9H0M0); details: 200 µM
WWP1, sequence (Q9H0M0 349-922): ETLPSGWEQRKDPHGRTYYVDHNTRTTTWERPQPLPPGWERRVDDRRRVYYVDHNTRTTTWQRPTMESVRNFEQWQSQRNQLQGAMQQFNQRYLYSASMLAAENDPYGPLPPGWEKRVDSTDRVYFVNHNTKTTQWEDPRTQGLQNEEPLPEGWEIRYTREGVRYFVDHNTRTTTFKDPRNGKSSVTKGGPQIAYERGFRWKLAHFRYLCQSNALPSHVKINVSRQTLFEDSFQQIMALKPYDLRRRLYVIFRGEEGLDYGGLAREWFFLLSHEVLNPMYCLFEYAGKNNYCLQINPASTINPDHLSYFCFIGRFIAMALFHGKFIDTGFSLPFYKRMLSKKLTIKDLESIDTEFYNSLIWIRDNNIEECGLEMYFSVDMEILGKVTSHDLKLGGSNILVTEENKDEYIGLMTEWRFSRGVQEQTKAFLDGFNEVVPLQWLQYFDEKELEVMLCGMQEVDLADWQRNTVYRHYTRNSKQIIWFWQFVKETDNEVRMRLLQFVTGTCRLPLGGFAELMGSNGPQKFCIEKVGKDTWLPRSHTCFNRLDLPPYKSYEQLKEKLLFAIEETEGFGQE
Procedure: (§3) All time-resolved fluorescence resonance energy transfer (TR-FRET) auto-ubiquitination assays were performed in a final volume of 10 µL in PerkinElmer 384-well flat bottom white OptiPlate™ polystyrene microplates (PerkinElmer Cat. No. 6007290). […] Concentrations of Ub activating (E1) and conjugating (E2) enzymes and fluorophores were selected to provide sufficient TR-FRET signal intensity for compound screening without excessive reagent consumption (Supplementary Fig. 3). Reaction mixes containing all assay components except ATP-MgCl2 were preincubated with either library compounds dissolved in 1% DMSO or DMSO alone at RT for up to 2 h. To initiate the auto-ubiquitination reaction, 2 mM ATP-MgCl2 was added and incubated at 37 °C for 60–90 min. TR-FRET signal was measured in a Synergy 4 microplate reader (BioTek) using a 340/30 nm excitation filter and measuring the emission ratio using 485/20 nm and 528/20 nm emission filters. Fluorescence measurement was performed over a 400 µs window following a 100 µs delay post-excitation (Fig. 1). Similarly, TR-FRET assays were used to measure the auto-ubiquitination activity of two other Nedd4 family HECT E3 ligases (WWP1 and WWP2) using alternative optimized buffer and fluorophore concentrations to test Nedd4 inhibitor specificity (Supplementary Table 2).
For selectivity assays, we used C-terminal His-tagged WWP1 and WWP2 bound to Tb-labelled
anti-His-tag antibody and FITC-labelled ubiquitin.
Tb-SA 50 nM AntiHis-Tb 16.5 nM AntiHis-Tb 10 nM
NaCl 150 mM NaCl 0 mM NaCl 0 mM
TCEP 0.1 mM TCEP 0.1 mM TCEP 0.1 mM
DMSO 1 % DMSO 1 % DMSO 1 %
MgCl2 2 mM MgCl2 2 mM MgCl2 2 mM
ATP 2 mM ATP 2 mM ATP 2 mM

WWP2 = WWP2 (Homo sapiens, UniProt O00308); details: 200 µM
WWP2, sequence (O00308 whole entry): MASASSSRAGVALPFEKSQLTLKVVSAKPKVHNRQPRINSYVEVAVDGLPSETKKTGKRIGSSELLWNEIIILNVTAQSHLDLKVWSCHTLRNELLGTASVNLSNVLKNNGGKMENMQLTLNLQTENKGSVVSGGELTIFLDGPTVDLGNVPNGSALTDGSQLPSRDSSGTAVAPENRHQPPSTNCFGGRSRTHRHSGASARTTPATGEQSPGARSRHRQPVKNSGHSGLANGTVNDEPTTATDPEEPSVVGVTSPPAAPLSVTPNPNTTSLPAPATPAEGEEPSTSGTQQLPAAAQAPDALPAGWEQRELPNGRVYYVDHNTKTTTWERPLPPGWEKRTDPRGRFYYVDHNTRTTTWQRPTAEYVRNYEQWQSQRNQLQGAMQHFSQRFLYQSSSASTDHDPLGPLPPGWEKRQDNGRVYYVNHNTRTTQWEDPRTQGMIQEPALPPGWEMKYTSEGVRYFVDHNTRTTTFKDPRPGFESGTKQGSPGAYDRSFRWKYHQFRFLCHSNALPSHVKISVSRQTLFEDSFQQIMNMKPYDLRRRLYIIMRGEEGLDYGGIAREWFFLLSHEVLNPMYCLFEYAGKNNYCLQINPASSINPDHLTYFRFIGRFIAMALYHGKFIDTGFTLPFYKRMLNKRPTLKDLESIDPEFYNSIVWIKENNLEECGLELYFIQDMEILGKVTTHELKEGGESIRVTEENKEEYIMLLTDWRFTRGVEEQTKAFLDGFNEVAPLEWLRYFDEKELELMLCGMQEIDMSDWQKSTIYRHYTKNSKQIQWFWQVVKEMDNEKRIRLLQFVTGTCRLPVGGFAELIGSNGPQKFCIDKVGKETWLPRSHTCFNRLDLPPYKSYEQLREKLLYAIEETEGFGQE
Procedure: as §3
For selectivity assays, we used C-terminal His-tagged WWP1 and WWP2 bound to Tb-labelled […]

Nedd4 [4] = target: T1, Nedd4; assay: Western blotting for ubiquitination and biotinylated Nedd4; format: biochemical; details: 50 and 100 µM, 2 h at RT
Procedure: The auto-ubiquitination reactions were initiated with the addition of 2 mM ATP-MgCl2. Another control reaction was performed without the addition of ATP-MgCl2 for comparison (negative control).

Nedd4 [5] = target: T1, Nedd4; assay: LC–MS/MS covalent adduction and site identification; format: binding; design: 30 µg of N-terminal His-tagged and C-terminal biotinylated Nedd4 (residue 1–900); made in house; host or cells: E. coli BL21 (D3)-BirA
Procedure: Samples were run on SDS-PAGE and stained with Coomassie Brilliant Blue R-250 (Thermo Fisher Scientific cat no. 20278). Gels were destained in water until the desired contrast was reached. The Nedd4 bands were cut and stored in 1% acetic acid at 4 °C until use. Samples were submitted to the SPARC Molecular Analysis Centre at the Hospital for Sick Children (Toronto, ON, CA) for LC–MS/MS analysis. Each gel band was cut into 3 pieces and digested with 0.8 µg pepsin, 0.6 µg trypsin and 0.6 µg chymotrypsin separately. The peptides obtained through the proteolytic digest were combined then lyophilized and resuspended in 0.1% formic acid. These samples were then subjected to MS/MS spectroscopy by an EASY-nLC 1200 nano-LC system + Thermo Scientific Orbitrap Fusion Lumos Tribrid mass spectrometer. MS data was analyzed using Scaffold PTM 4.0.1.

Nedd4 C627A = target: T2, Nedd4 C627A (Homo sapiens, UniProt P46934, C1046A); assay: TR-FRET auto-ubiquitination assay of Nedd4 mutant C627A; format: biochemical; details: 2 h at RT, read-out: retention of uninhibited C627A activity
T2 construct: full length C182A, C627A, C867A, and C627A + C867A mutants; made in house; host or cells: E. coli BL21 (D3)-BirA
T2 sequence (P46934 1-900 isoform P46934-4 C627A): T1 sequence (P46934 1-900 isoform P46934-4) with C627A
Procedure: (§4) All time-resolved fluorescence resonance energy transfer (TR-FRET) auto-ubiquitination assays were performed in a final volume of 10 µL in PerkinElmer 384-well flat bottom white OptiPlate™ polystyrene microplates (PerkinElmer Cat. No. 6007290). […] A low concentration of NP-40 detergent (0.00063% v/v) was chosen for the Nedd4 auto-ubiquitination assay since this concentration yielded optimal terbium emission at 485 nm after 340 nm excitation (Supplementary Fig. 2). Concentrations of Ub activating (E1) and conjugating (E2) enzymes and fluorophores were selected to provide sufficient TR-FRET signal intensity for compound screening without excessive reagent consumption (Supplementary Fig. 3). Reaction mixes containing all assay components except ATP-MgCl2 were preincubated with either library compounds dissolved in 1% DMSO or DMSO alone at RT for up to 2 h. […] TR-FRET signal was measured in a Synergy 4 microplate reader (BioTek) using a 340/30 nm excitation filter and measuring the emission ratio using 485/20 nm and 528/20 nm emission filters. Fluorescence measurement was performed over a 400 µs window following a 100 µs delay post-excitation (Fig. 1).
(§5) All assays were carried out in triplicate with the data representing the mean with standard deviation. […] Auto-ubiquitination reactions were allowed to proceed for 1 h at 37 °C and then read through the TR-FRET assay described in the methods.

Nedd4 C867A = target: T3, Nedd4 C867A (Homo sapiens, UniProt P46934, C1286A); assay: TR-FRET auto-ubiquitination assay of Nedd4 mutant C867A; format: biochemical; details: 200 µM, 2 h at RT
T3 construct: full length C182A, C627A, C867A, and C627A + C867A mutants; made in house; host or cells: E. coli BL21 (D3)-BirA
T3 sequence (P46934 1-900 isoform P46934-4 C867A): T1 sequence (P46934 1-900 isoform P46934-4) with C867A
Procedure: as §4, §5

Nedd4 C627A + C867A = target: T4, Nedd4 C627A + C867A (Homo sapiens, UniProt P46934, C1046A/C1286A); assay: TR-FRET auto-ubiquitination assay of Nedd4 double mutant C627A + C867A; format: biochemical; details: 200 µM, 2 h at RT
T4 construct: full length C182A, C627A, C867A, and C627A + C867A mutants; made in house; host or cells: E. coli BL21 (D3)-BirA
T4 sequence (P46934 1-900 isoform P46934-4 C627A/C867A): T1 sequence (P46934 1-900 isoform P46934-4) with C627A, C867A
Procedure: as §4, §5

[6] = 200 µM compound, 3 h incubation

OCc1cn(Cc2ccccc2)c2ccccc12 [Compound 1-benzyl-I3C, 1-benzyl-I3C]
IC50 (Nedd4 [1]; measured through an ELISA-based assay of Nedd4 activity): 12.3 µM

OCc1c[nH]c2ccccc12 [Compound 5, Indole-3-carbinol, reference compound]
inhibition (Nedd4 [2]; 500 µM): 33% | IC50 (Nedd4 [1]; previously reported): 284 µM

Cn1cc(C(=O)CCl)c2ccccc21 [Compound 6]
IC50 (Nedd4 [3]): 174 µM and 170 µM

COC(=O)c1ccc2[nH]cc(C(=O)CCl)c2c1 [Compound 11]
IC50 (Nedd4 [3]): 96.8 µM and 100 µM

O=C(CCl)c1c[nH]c2ccncc12 [Compound 13]
inhibition (WWP1): 47% and 72% | inhibition (WWP2): 58% and 73%

Cc1cc(C(=O)CCl)c(C)n1-c1ccccc1 [Compound 20]
IC50 (Nedd4 [3]): 244 µM and 240 µM

COCCn1c(C)cc(C(=O)CCl)c1C [Compound 21]
IC50 (Nedd4 [3]): 143 µM and 140 µM

Cc1cc(C(=O)CCl)c(C)[nH]1 [Compound 23]
inhibition (WWP1): ~25% | IC50 (Nedd4 [3]): < 60 µM and 56 µM

Cn1ccc(C(=O)CCl)c1 [Compound 24]
IC50 (Nedd4 [3]): 116 µM and 115 µM

O=C(CCl)c1c[nH]c2ccccc12 [Compound 25]
inhibition (WWP1): ~25%

Cc1cc(C(=O)CCl)c(C)n1CCC(C)C [Compound 29]
IC50 (Nedd4 [3]): 88 µM and 90 µM

Cc1cc(C(=O)C(C)Cl)c(C)n1Cc1ccco1 (centres unmarked) [Compound 36]
IC50 (Nedd4 [3]): 113 µM and 110 µM

O=C(CCl)c1ccccn1 [Compound 81]
effect on Nedd4 auto-ubiquitination by Western blot (Nedd4 [4]): complete loss of auto-ubiquitination | inhibition (Nedd4 [2]; 200 µM): > 50% | cysteine adduction sites confirmed by MS/MS (Nedd4 [5]; 200 µM compound, 3 h at RT): all three of the confirmed cysteine residues | Occurrence Among Observed Peptides, Cysteine Site C182 (Nedd4 [5]; [6]): 25/67 | Occurrence Among Observed Peptides, Cysteine Site C627 (Nedd4 [5]; [6]): 8/12 | Occurrence Among Observed Peptides, Cysteine Site C867 (Nedd4 [5]; [6]): 21/50 | Localization Probability of Compound 81 modification on cysteine (Cys627 peptide) (Nedd4 [5]; sheet "81 Mod Cys627", per peptide spectrum match, residues 639-657, C11 or C9 of the peptide): 100% and 72%, 0%, 100% and 100%, 100% | activity at 200 µM (Nedd4 C627A): 30% | IC50 (Nedd4 [3]): 31 µM and < 60 µM | change of C867A mutant activity on incubation with compound (Nedd4 C867A): No significant differences | change of C627A + C867A mutant activity on incubation with compound (Nedd4 C627A + C867A): No significant differences
